Reference: US20240158348A1, “HERBICIDAL CYCLIC AMIDES N-SUBSTITUTED WITH A HALOALKYLSULFONYLANILIDE GROUP” (FMC Corporation, priority 2021, published 2024)

What was measured:
Type in all cases: in vivo
[1] = test system: barnyardgrass (Echinochloa crusgalli); assay: Test D flooded paddy test, barnyardgrass; set-up: key: 0 = no effect, 100 = complete control; settings: 250 g ai/ha, Flood; applied to paddy water at 2-leaf stage; visual rating after 13 days; scale 0 (no effect) to 100 (complete control)
Procedure, shortened: (§1)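 Plants were grown to the 2-leaf stage, then pots were flooded to 3 cm above soil and compounds applied directly into the paddy water, with that depth held throughout. After 13 days in a greenhouse, injury was visually rated against untreated controls on a 0–100 scale (0 no effect, 100 complete control).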

[2] = test system: sedge, umbrella (small-flower umbrella sedge, Cyperus difformis); assay: Test D flooded paddy test, umbrella sedge; set-up: key: 0 = no effect, 100 = complete control; settings: 250 g ai/ha, Flood; applied to paddy water at 2-leaf stage; visual rating after 13 days; scale 0 (no effect) to 100 (complete control)
Procedure, shortened: as §1

corn (Zea mays) = assay: Test C postemergence, corn; settings: for Corn plant response rating: visual injury, 0 to 100 scale (0 no effect, 100 complete control); for Plant response rating (0 to 100 scale), Corn: 0 is no effect, 100 is complete control
[3] = test system: ragweed (common ragweed, Ambrosia artemisiifolia); assay: Test C postemergence, ragweed; settings: visual injury, 0 to 100 scale (0 no effect, 100 complete control)
Procedure, shortened: (§2)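 Plants grown in a sand and loam soil blend received the formulated test chemicals either as a preemergence soil-directed spray or postemergence at 2 to 10 cm height. After 10 or 12 greenhouse days, injury was assessed visually, with 100 meaning complete control.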

[4] = test system: oat, wild (wild oat, Avena fatua); assay: Test C preemergence, wild oat; settings: 0 is no effect, 100 is complete control
Procedure, shortened: as §2

kochia (Bassia scoparia) = assay: Test C preemergence, kochia; settings: 0 is no effect, 100 is complete control
Procedure, shortened: as §2

[5] = test system: ryegrass, Italian (Italian ryegrass, Lolium multiflorum); assay: Test C preemergence, Italian ryegrass; settings: 0 is no effect, 100 is complete control
Procedure, shortened: as §2

[6] = test system: foxtail, giant (giant foxtail, Setaria faberi); assay: Test C postemergence, giant foxtail; settings: for Foxtail, Giant plant response rating: visual injury, 0 to 100 scale (0 no effect, 100 complete control); for Plant response rating (0 to 100 scale), Foxtail, Giant: 0 is no effect, 100 is complete control
[7] = test system: blackgrass (Alopecurus myosuroides); assay: Test C preemergence, blackgrass; settings: 0 is no effect, 100 is complete control
Procedure, shortened: as §2

| Compound | Plant response rating, Barnyardgrass [1] | Plant response rating, Sedge, Umbrella [2] | Corn plant response rating (corn (Zea mays); 31 g ai/ha Postemergence) | Plant response rating (0 to 100 scale), Corn (corn (Zea mays); 125 g ai/ha Postemergence) | Ragweed plant response rating ([3]; 31 g ai/ha Postemergence) | Ragweed plant response rating ([3]; 125 g ai/ha Postemergence) | Plant response rating (0 to 100 scale), Oat, Wild ([4]; 31 g ai/ha Preemergence) | Plant response rating (0 to 100 scale), Oat, Wild ([4]; 125 g ai/ha Preemergence) | Plant response rating (0 to 100 scale), Kochia (kochia (Bassia scoparia); 31 g ai/ha Preemergence) | Plant response rating (0 to 100 scale), Kochia (kochia (Bassia scoparia); 125 g ai/ha Preemergence) | Plant response rating (0 to 100 scale), Ryegrass, Italian ([5]; 31 g ai/ha Preemergence) | Plant response rating (0 to 100 scale), Ryegrass, Italian ([5]; 125 g ai/ha Preemergence) | Foxtail, Giant plant response rating ([6]; 31 g ai/ha Postemergence) | Plant response rating (0 to 100 scale), Foxtail, Giant ([6]; 125 g ai/ha Postemergence) | Plant response rating (0 to 100 scale), Blackgrass ([7]; 31 g ai/ha Preemergence) | Plant response rating (0 to 100 scale), Blackgrass ([7]; 125 g ai/ha Preemergence) | Corn plant response rating (corn (Zea mays); 125 g ai/ha Postemergence) | Foxtail, Giant plant response rating ([6]; 125 g ai/ha Postemergence) |
| --- | --- | --- | --- | --- | --- | --- | --- | --- | --- | --- | --- | --- | --- | --- | --- | --- | --- | --- |
| Cc1c(NS(=O)(=O)C(F)(F)F)cc(N2CCC(OC3CCC3)C2=O)c(C)c1F (stereo not shown) [Compound 25] | 0 | 90 | 30 | 60 | 60 | 80 | 40 | 90 | 70 | 100 | 90 | 100 | 30 | 30 | 80 | 90 | – | – |
| Cc1c(N2CCC(OC3CCC3)C2=O)cc(N(COC(=O)C(C)(C)C)S(=O)(=O)C(F)(F)F)c(C)c1F (stereo not shown) [Compound 28] | 60 | 95 | 10 | 30 | 80 | 80 | 0 | 20 | 20 | 90 | 30 | 90 | 30 | 70 | 50 | 60 | – | – |
| Cc1cc(Cl)c(N(COC(=O)C(C)(C)C)S(=O)(=O)C(F)(F)F)cc1N1CCC(OC2CC2)C1=O (stereo not shown) [Compound 33] | 90 | 90 | 80 | 90 | 90 | 90 | 10 | 50 | 100 | 100 | 20 | 100 | 50 | 90 | 20 | 80 | – | – |
| Cc1c(NS(=O)(=O)C(F)(F)F)cc(N2CCCC(OC3CCC3)C2=O)c(C)c1F (stereo not shown) [Compound 36] | 0 | 95 | 0 | 20 | 40 | 90 | 30 | 90 | 20 | 90 | 100 | 100 | 10 | 30 | 80 | 100 | – | – |
| Cc1c(N2CCCC(OC3CC3)C2=O)cc(N(COC(=O)C(C)(C)C)S(=O)(=O)C(F)(F)F)c(C)c1F (stereo not shown) [Compound 37] | 90 | 95 | 10 | 90 | 60 | 90 | 20 | 20 | 0 | 90 | 30 | 70 | 10 | 80 | 10 | 60 | – | – |
| CC(=O)N(c1cc(N2CCC(OC3CC3)C2=O)c(C)cc1Cl)S(=O)(=O)C(F)(F)F (stereo not shown) [Compound 38] | 0 | 75 | 80 | 90 | 80 | 90 | 30 | 100 | 100 | 100 | 80 | 100 | 50 | 90 | 80 | 90 | – | – |
| Cc1c(N2CCCC(OC3CCC3)C2=O)cc(N(COC(=O)C(C)(C)C)S(=O)(=O)C(F)(F)F)c(C)c1F (stereo not shown) [Compound 39] | 35 | 95 | 0 | 10 | 30 | 80 | 0 | 0 | 20 | 60 | 0 | 60 | 0 | 10 | 0 | 20 | – | – |
| COC(=O)N(c1cc(N2CCC(OC3CC3)C2=O)c(C)cc1Cl)S(=O)(=O)C(F)(F)F (stereo not shown) [Compound 40] | 0 | 90 | 80 | 100 | 60 | 80 | 10 | 90 | 90 | 100 | 90 | 100 | 50 | 90 | 50 | 90 | – | – |
| Cc1cc(C)c(N2CCC(OCC3CC3(F)F)C2=O)cc1NS(=O)(=O)C(F)(F)F (stereo not shown) [Compound 41] | 15 | 70 | 40 | – | 50 | 70 | 60 | 100 | 100 | 100 | 100 | 100 | 20 | – | 80 | 100 | 90 | 90 |
| Cc1cc(C)c(N2CCC(OCC3CCCO3)C2=O)cc1NS(=O)(=O)C(F)(F)F (stereo not shown) [Compound 42] | 0 | 90 | 20 | – | 40 | 90 | 0 | 30 | 20 | 90 | 20 | 90 | 20 | – | 20 | 70 | 90 | 90 |
